One assay has as its target T1, TR beta LBD-GST (Homo sapiens, UniProt P10828).
T1 construct: incubated with the TR alpha LBD-GST or TR beta LBD-GST; purchased ThermoFIsher
T1 sequence (P10828 217-461 limits assumed): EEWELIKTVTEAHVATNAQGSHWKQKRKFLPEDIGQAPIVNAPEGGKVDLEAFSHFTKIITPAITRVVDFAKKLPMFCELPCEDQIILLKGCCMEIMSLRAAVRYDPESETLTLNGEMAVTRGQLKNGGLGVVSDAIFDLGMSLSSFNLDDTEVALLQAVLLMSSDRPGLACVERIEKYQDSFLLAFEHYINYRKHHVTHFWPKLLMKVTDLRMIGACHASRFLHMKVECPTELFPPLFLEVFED
Put plainly: Thyroid Receptor Beta Coactivator - Agonist (LanthaScreen TR-FRET coactivator recruitment assay). The following applies: 1% DMSO, relative to T3 response. It counts as biochemical. The procedure:
Thyroid receptor beta and thyroid receptor alpha coactivator recruitment assays were performed using LanthaScreen™ TR-FRET TR alpha or beta Coactivator Assay Kits (ThermoFIsher). The control agonist 3,3′,5-Triiodo-L-thyronine sodium salt, T3 (SIGMA) was used to validate the assay. Test compound and/or vehicle was incubated with the TR alpha LBD-GST or TR beta LBD-GST and coactivator peptide (Fluorescein-SRC2-2 (LKEKHKILHRLLQDSSSPV) (SEQ ID NO: 1)) for 30 minutes at RT. Determination of the amount of complex formed was read spectrofluorimetrically (excitation: 337 nm, emission: 520/490 nm) on a PHERAstar FS instrument (BMG). […] Compounds were screened at 30, 10, 3, 1, 0.3, 0.1, and 0.03 μM.

Another assay has as its target T2, TR alpha LBD-GST (Homo sapiens, UniProt P10827).
T2 construct: incubated with the TR alpha LBD-GST or TR beta LBD-GST; purchased ThermoFIsher
Description: Thyroid Receptor Alpha Coactivator - Agonist (LanthaScreen TR-FRET coactivator recruitment assay). It counts as biochemical. As to conditions: 1% DMSO, relative to T3 response. The procedure: Thyroid receptor beta and thyroid receptor alpha coactivator recruitment assays were performed using LanthaScreen™ TR-FRET TR alpha or beta Coactivator Assay Kits (ThermoFIsher). The control agonist 3,3′,5-Triiodo-L-thyronine sodium salt, T3 (SIGMA) was used to validate the assay. Test compound and/or vehicle was incubated with the TR alpha LBD-GST or TR beta LBD-GST and coactivator peptide (Fluorescein-SRC2-2 (LKEKHKILHRLLQDSSSPV) (SEQ ID NO: 1)) for 30 minutes at RT. Determination of the amount of complex formed was read spectrofluorimetrically (excitation: 337 nm, emission: 520/490 nm) on a PHERAstar FS instrument (BMG). […]

The structures appear in SMILES notation.

T2 sequence (P10827 163-410 isoform P10827-2 limits assumed, other chains not shown): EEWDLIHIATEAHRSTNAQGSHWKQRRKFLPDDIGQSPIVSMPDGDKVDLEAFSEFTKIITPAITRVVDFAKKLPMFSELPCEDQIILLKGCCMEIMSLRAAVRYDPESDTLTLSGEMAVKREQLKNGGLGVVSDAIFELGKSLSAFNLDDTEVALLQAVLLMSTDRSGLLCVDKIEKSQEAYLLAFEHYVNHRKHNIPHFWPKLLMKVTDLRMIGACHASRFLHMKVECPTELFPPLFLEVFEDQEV

For `N#Cc1cn(-c2cc(Cl)c(Oc3n[nH]c(=O)c4ccccc34)c(Cl)c2)c(=O)[nH]c1=O` [Compound g, 1-(3,5-dichloro-4-((4-oxo-3,4-dihydrophthalazin-1-yl)oxy)phenyl)-2,4-dioxo-1,2,3,4-tetrahydropyrimidine-5-carbonitrile], the “Agonist Response” value is recorded as −4.5 on TR beta LBD-GST (test compound 10 nM); −1.2 at TR beta LBD-GST (test compound 0.03 mcM); 0.7 at TR beta LBD-GST (test compound 0.1 mcM); 10.5 at TR beta LBD-GST (test compound 0.3 mcM); 28.7 at TR beta LBD-GST (test compound 1 mcM); 31.1 at TR beta LBD-GST (test compound 3 mcM). Besides, the “Agonist Response” value at TR beta LBD-GST (test compound 10 mcM) worked out at 32.6; on TR beta LBD-GST (test compound 30 mcM), 31.8; on TR alpha LBD-GST (test compound 10 nM), 1.1; at TR alpha LBD-GST (test compound 0.03 mcM) it was 1.4; on TR alpha LBD-GST (test compound 0.1 mcM) it was 2.2; on TR alpha LBD-GST (test compound 0.3 mcM), 3.9. The “Agonist Response” value at TR alpha LBD-GST (test compound 1 mcM) is 12.7; on TR alpha LBD-GST (test compound 3 mcM), 19.2; at TR alpha LBD-GST (test compound 10 mcM) it was 19.5; at TR alpha LBD-GST (test compound 30 mcM) it was 18.6.
